Data set [1] deals with human cord blood CD34+ cells (CD34+CD49f+ cells). Briefly: human cord blood CD34+ cell ex vivo culture and screen. The data set is classed as cell-based. As for the experimental part: Based on our study of murine HSCs, we further tested whether these p18SMIs could expand human cord blood CD34^+ cells in ex vivo culture. […] We cultured human cord blood CD34^+ cells for 7 days in HSCs expansion media in the presence of 200 nM of p18SMIs, and then analyzed the percentage and absolute number of CD34^+CD49f^+ cells by flow cytometry. We screened 40 p18SMIs, of which14 compounds could increase the number of CD34^+CD49f^+ cells compared with the control group (Fig. S6). […] Then we conducted a concentration gradient assay on top three p18SMIs with ED50 less than 10 nM (compounds 22, 40 and 41). […] Only in specific doses could they show their expansion effect on human HSCs (Fig. 4B).
Human cord blood samples were collected from consenting donors according to ethically approved procedures at Tianjin Central Hospital of Gynecology Obstetrics (Tianjin, China), under a protocol approved by the Ethical Committee on Medical Research at the Institute of Hematology. Human CD34^+ cord blood cells were isolated using human CD34 MicroBead Kit (MiltenyiBiotec) according to the manufacturer’s protocol after settling red cells with HES and red cells lysis with ACK Lysis Buffer.
Human CD34^+ cells were cultured in expansion medium consisting of StemSpan SFEM (StemCell Technologies) supplemented with 100 ng/mL human stem cell factor (SCF, PeproTech), 50 ng/mL human thrombopoietin (TPO, PeproTech), 100 ng/mL human FMS-like trysine kinase 3 ligand (Flt3L, PeproTech). Human CD34^+ cells were resuspended in expansion medium (5 × 10^4 cells/mL) before being aliquoted in 96-well plates (Costar, Corning Incorporated). Compounds, all with a final concentration of 200 nM, were dissolved in DMSO and added immediately in cell suspension after plating. The final concentration of DMSO in the control group was the same as in the compounds-treated group. Cells were cultured at 37 °C in 5% CO2. Based on the results of primary screening upon human cells and the results of ED50, we chose three compounds for further experiments. The expansion medium was changed to StemSpan SFEM (StemCell Technologies) supplemented with 100 ng/mL human stem cell factor (SCF, PeproTech), 100 ng/mL human thrombopoietin (TPO, PeproTech), 100 ng/mL human FMS-like trysine kinase 3 ligand (Flt3L, PeproTech) and 100 ng/mL human interleukin-6 (IL-6, PeproTech) for better expansion effect. The incubation condition was consistent with before.
Phenotypes analysis of cultured cells was performed on a BD FACS Array (Becton Dickinson Biosciences) using a combination of the following antibodies: APC anti-CD34 (BD Biosciences), PE anti-CD49f (BD Biosciences). Stained cells were washed once with PBS and then measured and analyzed on an FACS analyzer (FACSArray, BD Biosciences).

Data set [2] has as its system c-Kit-enriched BM cells (progenitor cells, HSPCs, LT-HSCs). Briefly: CFSE cell division assay. The data set is classed as cell-based, mouse. Conditions: LT-HSC. The source says: We have previously shown that deficiency of p18 may enhance HSCs expansion by inducing primitive phenotypes after each cell division in vivo[19]. To obtain direct evidence that compound 40 promotes primitive phenotypes after each cell division, we measured cell divisions in distinct immunophenotypically-defined populations of cells treated with p18SMI compound. 5- (and 6-) carboxy-fluorescein diacetatesuccinimidylester (CFSE) dye was used to label the c-Kit-enriched BM cells before culture. Surface markers for progenitor cells, HSPCs and LT-HSCs were used to co-stain the BM cells that were harvested 5 days after treatment with the p18SMI compound. The number of initial cell divisions was measured based on the intensity of CFSE in each cell population. Consistent with previous phenotype results, little effect on the progenitor cells and HSPCs populations was observed (Fig. 5A).
Prior to culture, cKit-enriched BM cells (1 × 10^6/mL) were labeled with 5- (and 6-) carboxy-fluorescein diacetatesuccinimidylester (CFSE) dye (3 μM, Molecular Probes) in PBS supplemented with 0.1% bovine serum albumin. Labeling was performed in the dark at 37 °C for 10 min. […] During cell division, CFSE is distributed equally between daughter cells so that the generation of cells could be reflected by the content of CFSE and measured by the intensity of fluorescence. […]

Another data set concerns LT-HSCs. Briefly: dependence of HSC expansion on CDK4/6 versus CDK2 (co-treatment with CDK inhibitors). The data set is classed as cell-based, mouse. The source says: To assess a direct role for p18-CDK6 signaling in HSCs expansion induced by compound 40, we used the CDK4/6-specific inhibitor PD0332991 to block CDK6 activation. As a control, we blocked CDK2 with SNS032, a CDK2 selective inhibitor. […] So here we wanted to explore whether p18SMI compound’s HSCs expansion effect was abrogated by CDK4/6 inhibitor or CDK2 inhibitor.

For another data set, the system named is MM.1S. Briefly: MTT proliferation assay on myeloma cell line. The data set is classed as cell-based. The source says:
(§1) With confirmation of compound 40 promoting the expansion of HSCs, we further examined whether it might also increase the risk of malignant diseases. In order to determine the effect of compound 40 on hematological tumorigenesis, proliferation of both leukemia cell lines (KG-1 and KG-1a) and myeloma cell lines (MM.1S and RPMI 8226) was further investigated by a standard MTT assay.
(§2) To evaluate the toxicity of our top compounds, we performed a cell proliferation assay using 32D cells as well as leukemia cell lines and myeloma cell lines. Weihi-3 cells were cultured at 37 °C under 5% CO2 in RPMI 1640 medium supplemented with 10%FBS. After 48 h, the supernatant was collected and filtered. 32D cells were cultured in RPMI 1640 with 10% FBS and 10% supernatant collected from Weihi-3 cells. 8,000 32D cells or leukemia cell line (KG-1 or KG-1a) or myeloma cell line (MM.1S or RPMI 8226) were plated in a 96-well plate in 198 μL culture media per well, and then cultured (37 °C, 5% CO2) overnight. 2 μL of serially diluted compounds dissolved in saline or DMSO were added to each well and incubated (37 °C, 5% CO2) for 72 h. The concentration of DMSO was equal to the one in corresponding compound group. 20 μL of MTT solution was added to each well and then incubated (37 °C, 5% CO2) for 4 h. The percentage of cell survival was determined using the MTT assay, as previously described. The data was analyzed using GraphPad Prism v6.0.
(§3) (1 picture or pasted object on this page, not shown here)
(In general: Formazan colour is commonly taken as a measure of viable cells.)

The next data set relates to RPMI 8226. The data set can be described thus: MTT proliferation assay on myeloma cell line. The data set is classed as cell-based.
Excerpt: as §1, §2, §3

`O=C([O-])c1ccc(S(=O)(=O)NC2CCCCC2)cc1.[Na+]` [Compound 40, sodium 4-(N-cyclohexylsulfamoyl)benzoate]: the “increase in the absolute number of CD34+CD49f+ cells” value in data set [1] (200 nM, 7 days in HSCs expansion media, versus control group) is above 30%. Further, the “expansion of human HSCs in concentration gradient assay” value in data set [1] (dose response, Fig. 4B) is reported as “concentration related”. Moreover, the “% Divided” value in data set [2] amounted to 65.2%. Also, the results for the “number of LT-HSCs” value with LT-HSCs (in the PD0332991-treated group (CDK4/6-specific inhibitor)) and in the data set with LT-HSCs (in the SNS032-treated group (CDK2 selective inhibitor)) were “failed to increase” and “still enhanced”, respectively. The “enhancement of proliferation (MTT)” value with MM.1S (5 μM) and in the data set with RPMI 8226 (5 μM) was “did not enhance” each time. Also, the “effect on myeloma cell line” value in the data set with MM.1S (high concentration (20 μM)) and with RPMI 8226 (high concentration (20 μM)) was “no effect” each time.

For the origin of these results see PMC4683533, “Discovery of novel INK4C small-molecule inhibitors to promote human and murine hematopoietic stem cell ex vivo expansion” (Scientific Reports, 2015).
